Measurements published in ChEMBL document CHEMBL3045735, “Antibacterial and molecular docking studies of entagenic acid, a bioactive principle from seed kernel of Entada pursaetha DC” (2012).
Values after ≈ are worked out from the molar mass of the structure shown.

What was measured:
Format in all cases: functional
Klebsiella aerogenes [1] = assay: Antibacterial activity against Enterobacter aerogenes NCIM 2036 after 24 hr by agar diffusion assay
Pseudomonas aeruginosa [2] = assay: Antibacterial activity against Pseudomonas aeruginosa NCIM-2036 after 24 hr by agar diffusion assay
Bacillus subtilis [3] = assay: Antibacterial activity against Bacillus subtilis NCIM-2063 after 24 hr by agar diffusion assay
Bacillus subtilis [4] = assay: Antibacterial activity against Bacillus subtilis NCIM-2063 after 24 hr by broth dilution method; details: NCIM-2063, 24 h
Proteus vulgaris [5] = assay: Antibacterial activity against Proteus vulgaris NCIM-2027 after 24 hr by broth dilution method; details: NCIM-2027, 24 h
Staphylococcus aureus [6] = assay: Antibacterial activity against Staphylococcus aureus NCIM-2079 after 24 hr by broth dilution method; details: NCIM-2079, 24 h
Alcaligenes faecalis [7] = assay: Antibacterial activity against Alcaligenes faecalis NCIM-2262 after 24 hr by agar diffusion assay
Klebsiella aerogenes [8] = assay: Antibacterial activity against Enterobacter aerogenes NCIM 2036 after 24 hr by broth dilution method; details: NCIM-2036, 24 h
Proteus vulgaris [9] = assay: Antibacterial activity against Proteus vulgaris NCIM-2027 after 24 hr by agar diffusion assay
Escherichia coli [10] = assay: Antibacterial activity against Escherichia coli NCIM-2065 after 24 hr by agar diffusion assay
Pseudomonas aeruginosa [11] = assay: Antibacterial activity against Pseudomonas aeruginosa NCIM-2036 after 24 hr by broth dilution method; details: NCIM-2036, 24 h
Bacillus cereus [12] = assay: Antibacterial activity against Bacillus cereus NCIM-2155 after 24 hr by broth dilution method; details: NCIM-2155, 24 h
Alcaligenes faecalis [13] = assay: Antibacterial activity against Alcaligenes faecalis NCIM-2262 after 24 hr by broth dilution method; details: NCIM-2262, 24 h
Staphylococcus aureus [14] = assay: Antibacterial activity against Staphylococcus aureus NCIM-2079 after 24 hr by agar diffusion assay
Bacillus cereus [15] = assay: Antibacterial activity against Bacillus cereus NCIM-2155 after 24 hr by agar diffusion assay
Escherichia coli [16] = assay: Antibacterial activity against Escherichia coli NCIM-2065 after 24 hr by broth dilution method; details: NCIM-2065, 24 h

SMILES: CC1(C)CC[C@]2(C(=O)O)[C@H](O)[C@H](O)[C@]3(C)C(=CC[C@@H]4[C@@]5(C)CC[C@H](O)C(C)(C)[C@@H]5CC[C@]43C)[C@@H]2C1 [ENTAGENIC ACID]
- diameter of the inhibition zone (DIZ) (Klebsiella aerogenes [1]): 6.5 mm
- diameter of the inhibition zone (DIZ) (Pseudomonas aeruginosa [2]): 15 mm
- diameter of the inhibition zone (DIZ) (Bacillus subtilis [3]): 18 mm
- MIC (Bacillus subtilis [4]): 100 µg/mL (≈ 205 µM)
- MIC (Proteus vulgaris [5]): 250 µg/mL (≈ 512 µM)
- MIC (Staphylococcus aureus [6]): 100 µg/mL (≈ 205 µM)
- diameter of the inhibition zone (DIZ) (Alcaligenes faecalis [7]): 15 mm
- MIC (Klebsiella aerogenes [8]): 300 µg/mL (≈ 614 µM)
- diameter of the inhibition zone (DIZ) (Proteus vulgaris [9]): 13.5 mm
- diameter of the inhibition zone (DIZ) (Escherichia coli [10]): 13 mm
- MIC (Pseudomonas aeruginosa [11]): 150 µg/mL (≈ 307 µM)
- MIC (Bacillus cereus [12]): 100 µg/mL (≈ 205 µM)
- MIC (Alcaligenes faecalis [13]): 150 µg/mL (≈ 307 µM)
- diameter of the inhibition zone (DIZ) (Staphylococcus aureus [14]): 17.5 mm
- diameter of the inhibition zone (DIZ) (Bacillus cereus [15]): 22 mm
- MIC (Escherichia coli [16]): 250 µg/mL (≈ 512 µM)

SMILES: CN[C@@H]1[C@H](O[C@H]2[C@H](O[C@H]3[C@H](O)[C@@H](O)[C@H](N=C(N)N)[C@@H](O)[C@@H]3N=C(N)N)O[C@@H](C)[C@]2(O)C=O)O[C@@H](CO)[C@H](O)[C@H]1O [STREPTOMYCIN]
- diameter of the inhibition zone (DIZ) (Klebsiella aerogenes [1]): 19.38 mm
- diameter of the inhibition zone (DIZ) (Pseudomonas aeruginosa [2]): 21.15 mm
- diameter of the inhibition zone (DIZ) (Bacillus subtilis [3]): 22.33 mm
- diameter of the inhibition zone (DIZ) (Alcaligenes faecalis [7]): 22.37 mm
- diameter of the inhibition zone (DIZ) (Proteus vulgaris [9]): 24.36 mm
- diameter of the inhibition zone (DIZ) (Escherichia coli [10]): 18.42 mm
- diameter of the inhibition zone (DIZ) (Staphylococcus aureus [14]): 19.41 mm
- diameter of the inhibition zone (DIZ) (Bacillus cereus [15]): 20.53 mm
